Like-named read-outs stand apart in the source and are kept apart here.

For data set [1], the system named is FFAs. Particulars: hypoglycemic activity, File S1, cited from earlier work.
Details of data set [2]: method as in PMID 12888267. The settings on record: cited from earlier work.
In data set [3] the test system is rat. The data set can be described thus: Acute toxicity study, rapid method of Prozorovskii (LD50). The class given is in vivo. Also noted: LD50exp: unit not given here. The settings on record: for LD50exp: range in brackets; for Class in AD (experimental toxicity class): rat, in vivo. How it is done:
Acute toxicity studies were carried out by rapid method of Prozorovskii. […] The following criteria were used for the evaluation of acute toxicity: the number of dead animals, the timing of their death, LD50 through the night, the picture of intoxication, behavioral change and autopsy results of the survived animals after 14 days. Clinical examination was performed for each animal during the first hour after administration of the substance, and weekly thereafter. Clinical examination included a detailed inspection of the animal in cage, in hands and in the open area. The manifestation and severity of intoxication were noted. Examination of animals in order to identify mortality or signs of variations in health status was conducted on a daily basis. Integrated indicators were assessed weekly during the entire period of observation. Death of animals was recorded daily during entire study period. General condition and behavior of animals as well as type of toxic manifestations, including their development and termination were recorded daily during the procedures for monitoring and inspection of individual animals.

In data set [4] the test system is adrenaline hyperglycemia in mongrel white mice. The data set is described as follows: In vivo hypoglycemic activity in the adrenaline hyperglycemia model. The settings on record: oral, 1/10 of the LD50, 1 hour prior to epinephrine hydrochloride 1 mg/kg s.c. As to the method:
Determination of hypoglycemic activity of 5 complexes was performed on 75 mice. Adrenaline hyperglycemia was caused by subcutaneous administration of 0.1% epinephrine hydrochloride (AGH) at a dose of 1 mg/kg. […] In each experimental group there were 3 animals and 3 replicates were performed. The content of glucose in whole blood was determined at 0.5, 1 and 2 hours after administration of AGH or glucose using portable glucose monitoring systems, OneTouch Ultra test strip and OneTouch Ultra and Clever check TD4209 and strips Clever check TD4209.

The subject of data set [5] is free fatty acids released in adipocytes. The data set can be described thus: Insulin-mimetic action: inhibition of free fatty acid release from epinephrine-stimulated adipocytes. The class given is cell-based. Particulars: rat adipocytes, 30 min with compound at 37°C, then 3 hours with epinephrine; 50% inhibition of FFA release; read-out: IC50 exp (±S.D.) (FFAs). How it is done: All rats (250–300 g) and mice (22–25 g) were housed in a temperature controlled room (24°C±1°C) and they had received standard food pellets and tap water […]. At the end of the study (24 h after CIN induction), all animal test subjects were euthanized by inhalation of ether anesthesia. Rat adipocytes were prepared from the fat pads of male Wistar rats by collagenase digestion according to the method of Rodbell. Freshly prepared adipocytes were incubated (37°C, 30 min) with solutions of the vanadium compounds at three concentrations (0.1, 0.5 and 1 mM in isotonic saline and 5 mM glucose), followed by 3 hours of incubation with epinephrine. The inhibitory effect was determined in terms of the decrease of the amount free fatty acids released in adipocytes. All assays were performed in duplicate or triplicate. […] Investigations were carried out on mongrel white mice.

In general, IC50 refers to the concentration that inhibits the measured activity by half. The term LD50 denotes the dose at which mortality reaches 50%. As to `Cc1occc(=O)c1[O-].Cc1occc(=O)c1[O-].[O]=[V+2]` [BMOV, bis(maltolato)oxovanadium(IV)], the IC50 in data set [1] (ref 5 (Sakurai et al. 2010)) was 676 µM. For the same compound, the LD50 in data set [2] was 220 mg/kg. Consider `O.O.O.O.O.O.O.O.[Na+].[O]=[V-]12([O][O]1)[O][O]2.c1ccc(-c2ccccn2)nc1` [Complex I, Sodium(2,2′-Bipyridyl) oxo-diperoxovanadate(V) octahydrate], for which, in data set [3], the LD50exp is on record as 108(95–122) and the “Class in AD (experimental toxicity class)” value (“Class in AD” for short) turned out to be 3. Moreover, the “decreasing blood glucose level” value in data set [4] came to 50%. The IC50 in data set [5] was 720 ± 90 µM. Regarding `CC(=O)/C=C(/C)[O-].CC(=O)/C=C(/C)[O-].[O]=[V+2]` [Complex II, Bis(acetylacetonato)oxo-vanadium(IV)], the 50% inhibitory concentration (IC50) in data set [5] stood at 950 ± 90 µM.

As for `CC(C)(C)OC(=O)[N-]C(=N)N.CC(C)(C)OC(=O)[N-]C(=N)N.[O]=[V+2]` [Complex III, Bis{tert-butyl[amino(imino)methyl]carbamato} oxovanadium (IV)], in data set [3], the LD50exp is 190(170–210) and the “Class in AD” value is listed as 3. Moreover, the “decreasing blood glucose level” value in data set [4] is on record as 42%. In addition, in data set [5], the IC50 worked out at 540 ± 70 µM. For `O=C([O-])C([O-])C([O-])C(=O)[O-].O=C([O-])C([O-])C([O-])C(=O)[O-].[K+].[K+].[K+].[K+].[O]=[V+2].[O]=[V+2]` (stereo not drawn) [Complex IV, Potassium bis((m2-d,d-tartrato-O,O′,O′′,O′′′)-oxo-vanadium(IV)) dihydrate], in data set [5], the IC50 was 950 ± 100 µM.

In the case of `O=C1[O][V+4]2(=[O])([O]C(=O)c3c(O)ccc[n+]32)[n+]2cccc(O)c21` [VO(3hpa)2], in data set [1] (ref 1 (Sakurai, Yasui 2003)), the IC50 is 470 µM. With `Cc1ccc[n+]2c1C(=O)[O][V+4]21(=[O])[O]C(=O)c2c(C)ccc[n+]21` [VO(3mpa)2], the IC50 in data set [1] (ref 3 (Sakurai et al. 2000)) was 660 µM. `O=C1[O][V+4]2(=[O])([O]C(=O)c3cc(Cl)cc[n+]32)[n+]2ccc(Cl)cc21` [VO(4clpa)2]: the IC50 in data set [1] (ref 3 (Sakurai et al. 2000)) was 700 µM.

For `O=C1[O][V+4]2(=[O])([O]C(=O)c3ccc(I)c[n+]32)[n+]2cc(I)ccc21` [VO(5ipa)2], in data set [1] (ref 3 (Sakurai et al. 2000)), the IC50 is 450 µM.

For the compound `CCc1cccc2[n+]1[V+4]1(=[O])([O]C2=O)[O]C(=O)c2cccc(CC)[n+]21` [VO(6epa)2], in data set [1] (ref 4 (Sasagawa et al. 2002)), the IC50 was 810 µM. `O=C1[O][V+4]2(=[O])([O]C(=O)c3cccc(O)[n+]32)[n+]2c(O)cccc21` [VO(6hpa)2]: the IC50 in data set [1] (ref 1 (Sakurai, Yasui 2003)) was 800 µM.

Take `Cc1cccc2[n+]1[V+4]1(=[O])([O]C2=O)[O]C(=O)c2cccc(C)[n+]21` [VO(6mpa)2]: the IC50 in data set [1] (ref 3 (Sakurai et al. 2000)) is 490 µM. For `CCCCCC1=C2[O][V+4]3(=[O])([O]C4=C(CCCCC)OC(C)=C(OC)C4=[O+]3)[O+]=C2C(OC)=C(C)O1` [VO(alx)2], the IC50 in data set [1] (ref 5 (Sakurai et al. 2010)) was 553 µM.

Take `[O]=[V+4]12([O][n+]3ccccc3[S]1)[O][n+]1ccccc1[S]2` [VO(opt)2]: the IC50 in data set [1] (ref 6 (Sakurai et al. 1999)) is 190 µM. Take `O=C1[O][V+4]2(=[O])([O]C(=O)c3cccc[n+]32)[n+]2ccccc21` [VO(pic)2]: the IC50 in data set [1] (ref 3 (Sakurai et al. 2000)) is 590 µM.

As for `O=S(=O)([O-])[O-].[O]=[V+2]` [VOSO4, Vanadyl sulfate], in data set [3], the LD50exp was 448(356–540) and the “Class in AD” value amounted to 3. Also, the IC50 in data set [1] (ref 1 (Sakurai, Yasui 2003)) was 840 µM. Moreover, the “decreasing blood glucose level” value in data set [4] amounted to 16%. In data set [5], the IC50 was found to be 1000 ± 90 µM. Consider `Cc1cccc2[n+]1[Zn+2]1([O]C2=O)[O]C(=O)c2cccc(C)[n+]21` [Zn(6mpa)2], for which the IC50 in data set [1] (ref 7 (Yoshikawa et al. 2002)) is 310 µM. `O=C[C@@H]1CC(=O)[NH][Zn@@+2]2([NH]C(=O)C[C@H](C=O)[NH]2)[NH]1` [Zn(L-Asn)2]: the IC50 in data set [1] (ref 8 (Yoshikawa et al. 2001)) is 650 µM. On to `O=C[C@H]1CCC[N]1[Zn+2][N]1CCC[C@@H]1C=O` [Zn(L-Pro)2], for which the IC50 in data set [1] (ref 8 (Yoshikawa et al. 2001)) is 890 µM. Turning to `C[C@@H](O)[C@H]1[NH][Zn+2]2([NH][C@H]([C@@H](C)O)C(=O)[O]2)[O]C1=O` [Zn(L-Thr)2], the IC50 in data set [1] (ref 8 (Yoshikawa et al. 2001)) is 540 µM. On to `CC(C)[C@H](C=O)[NH][Zn+2][NH][C@H](C=O)C(C)C` [Zn(L-Val)2], for which the IC50 in data set [1] (ref 8 (Yoshikawa et al. 2001)) was 770 µM. With `Cc1occc(=O)c1[O][Zn+2][O]c1c(C)occc1=O` [Zn(maltolat)2], the IC50 in data set [1] (ref 7 (Yoshikawa et al. 2002)) is 590 µM. Consider `O=C1[O][Zn+2]2([O]C(=O)c3cccc[n+]32)[n+]2ccccc21` [Zn(pic)2], for which the half-maximal inhibitory concentration (IC50) in data set [1] (ref 7 (Yoshikawa et al. 2002)) is 640 µM. In the case of `O=S1(=O)[O][Zn+2][O]1` [ZnSO4], the half-maximal inhibitory concentration (IC50) in data set [1] (ref 8 (Yoshikawa et al. 2001)) is 810 µM. For the compound `O=S(=O)(O)[O][V+4]123(=[O])[O]c4ccccc4C[N+]1(Cc1cccc[n+]12)Cc1cccc[n+]13` (stereo not drawn) [[VIVO(bp-O)HSO4]], the half-maximal inhibitory concentration (IC50) in data set [1] (ref 9 (Nilsson et al. 2009)) is 3850 µM.

As for `COC(=O)[C@@H](Cc1c[nH]c2ccccc12)NC(=O)c1ccc2[n+](c1)[V+4]1(=[O])([O]C2=O)[O]C(=O)c2ccc(C(=O)N[C@H](Cc3c[nH]c4ccccc34)C(=O)OC)c[n+]21` [[VIVO(pic-trpMe)2]], the IC50 in data set [1] (ref 9 (Nilsson et al. 2009)) was 410 µM. As to `O=S(=O)([O-])[O-].[O]=[V+2].c1ccc(CN(Cc2ccccn2)Cc2ccccn2)nc1` [[VIVO(tpa)SO4]], the IC50 in data set [1] (ref 9 (Nilsson et al. 2009)) was 4600 µM. With `O=C(N[C@H](Cc1c[nH]c2ccccc12)C(=O)O)c1ccc2[n+](c1)[V+4]1(=[O])([O]C2=O)[n+]2ccccc2C[N+]1(Cc1ccccn1)Cc1ccccn1` [[VVO(pic-trpH)tpa]2+], the IC50 in data set [1] (ref 9 (Nilsson et al. 2009)) is 1840 µM. Regarding `[O]=[V+4]12([O]C3=COC=C[C@@H]3[O]1)[O]C1=COC=C[C@H]1[O]2` [bis(3-hydroxy-4-pyronato)oxovanadium(IV)], in data set [1] (ref 2 (Sakurai et al. 2008)), the IC50 is 1180 µM. As to `CCC1=C2[O][V+4]3(=[O])([O]C4=C(CC)OC=C[C@@H]4[O]3)[O][C@H]2C=CO1` [bis(ethylmaltolato)oxovanadium(IV)], in data set [1] (ref 5 (Sakurai et al. 2010)), the IC50 was 632 µM.

“(S)-[2-(N-salicylidene) amino-propionate] oxovanadium(IV) monohydrate [Complex V]”: in data set [3], the LD50exp is 245(210–280) and the “Class in AD” value is recorded as 3. The “decreasing blood glucose level” value in data set [4] worked out at 26%. Also, the IC50 in data set [5] worked out at 810 ± 60 µM.

The values above are taken from paper PMC4109918, “Design, Synthesis and Pharmacological Evaluation of Novel Vanadium-Containing Complexes as Antidiabetic Agents” (PLoS ONE, 2014).
